Measured values reported in the NIST ThermoML archive (doi:10.1021/acs.jced.8b00132).
Several values for one entry are separate records, joined by “and”; a condition that tells them apart may be missing. Equal entries are not always repeated.

O=C(C(F)(F)C(F)(F)F)C(F)(C(F)(F)F)C(F)(F)F [dodecafluoro-2-methylpentan-3-one]
Settings | thermal conductivity
333.01 K, 108 kPa, Liquid, transient hot wire | 0.05128 W/m/K and 0.05126 W/m/K
333.21 K, 69192 kPa, Liquid, transient hot wire | 0.07561 W/m/K
333.22 K, 69183 kPa, Liquid, transient hot wire | 0.07544 W/m/K
333.25 K, 28069 kPa, Liquid, transient hot wire | 0.06356 W/m/K
333.26 K, 28068 kPa, Liquid, transient hot wire | 0.06353 W/m/K
333.28 K, 57706 kPa, Liquid, transient hot wire | 0.07259 W/m/K
333.29 K, 57707 kPa, Liquid, transient hot wire | 0.07259 W/m/K
333.34 K, 3947 kPa, Liquid, transient hot wire | 0.05333 W/m/K
333.35 K, 3945 kPa, Liquid, transient hot wire | 0.0533 W/m/K
333.35 K, 20435 kPa, Liquid, transient hot wire | 0.06088 W/m/K
333.36 K, 20438 kPa, Liquid, transient hot wire | 0.06085 W/m/K
333.37 K, 45549 kPa, Liquid, transient hot wire | 0.06924 W/m/K
333.39 K, 45558 kPa, Liquid, transient hot wire | 0.06943 W/m/K
333.46 K, 14103 kPa, Liquid, transient hot wire | 0.05826 W/m/K
333.47 K, 14107 kPa, Liquid, transient hot wire | 0.05827 W/m/K
333.47 K, 36549 kPa, Liquid, transient hot wire | 0.06656 W/m/K
333.48 K, 36550 kPa, Liquid, transient hot wire | 0.0665 W/m/K
333.58 K, 8568 kPa, Liquid, transient hot wire | 0.0556 W/m/K
333.58 K, 8574 kPa, Liquid, transient hot wire | 0.05562 W/m/K
333.67 K, 231 kPa, Liquid, transient hot wire | 0.05113 W/m/K
333.67 K, 232 kPa, Liquid, transient hot wire | 0.05114 W/m/K
333.7 K, 108 kPa, Liquid, transient hot wire | 0.05109 W/m/K
333.71 K, 108 kPa, Liquid, transient hot wire | 0.051 W/m/K
341.75 K, 117 kPa, Gas, transient hot wire | 0.01428 W/m/K
341.75 K, 153 kPa, Gas, transient hot wire | 0.01409 W/m/K
341.8 K, 117 kPa, Gas, transient hot wire | 0.01432 W/m/K
341.81 K, 154 kPa, Gas, transient hot wire | 0.01416 W/m/K
341.86 K, 61 kPa, Gas, transient hot wire | 0.01468 W/m/K
341.91 K, 62 kPa, Gas, transient hot wire | 0.01468 W/m/K
342.04 K, 153 kPa, Gas, transient hot wire | 0.01411 W/m/K
342.05 K, 117 kPa, Gas, transient hot wire | 0.01436 W/m/K
342.11 K, 116 kPa, Gas, transient hot wire | 0.01434 W/m/K
342.11 K, 153 kPa, Gas, transient hot wire | 0.0142 W/m/K
342.19 K, 61 kPa, Gas, transient hot wire | 0.01474 W/m/K
342.23 K, 61 kPa, Gas, transient hot wire | 0.01466 W/m/K
342.38 K, 153 kPa, Gas, transient hot wire | 0.0142 W/m/K
342.39 K, 115 kPa, Gas, transient hot wire | 0.01437 W/m/K
342.44 K, 116 kPa, Gas, transient hot wire | 0.01444 W/m/K
342.44 K, 153 kPa, Gas, transient hot wire | 0.01429 W/m/K
342.56 K, 60 kPa, Gas, transient hot wire | 0.01477 W/m/K
342.59 K, 61 kPa, Gas, transient hot wire | 0.01463 W/m/K
342.74 K, 153 kPa, Gas, transient hot wire | 0.01422 W/m/K
342.76 K, 115 kPa, Gas, transient hot wire | 0.0144 W/m/K
342.8 K, 153 kPa, Gas, transient hot wire | 0.01428 W/m/K
342.81 K, 116 kPa, Gas, transient hot wire | 0.01448 W/m/K
342.95 K, 60 kPa, Gas, transient hot wire | 0.01472 W/m/K
342.98 K, 61 kPa, Gas, transient hot wire | 0.01475 W/m/K
343.11 K, 153 kPa, Gas, transient hot wire | 0.01428 W/m/K
343.15 K, 116 kPa, Gas, transient hot wire | 0.01455 W/m/K
343.18 K, 153 kPa, Gas, transient hot wire | 0.01436 W/m/K
343.2 K, 116 kPa, Gas, transient hot wire | 0.0145 W/m/K
343.36 K, 60 kPa, Gas, transient hot wire | 0.0147 W/m/K
343.39 K, 61 kPa, Gas, transient hot wire | 0.01474 W/m/K
343.88 K, 192 kPa, Gas, hot wire | 0.01563 W/m/K
343.89 K, 192 kPa, Gas, hot wire | 0.01557 W/m/K
343.9 K, 170 kPa, Gas, hot wire | 0.01524 W/m/K and 0.0152 W/m/K
343.91 K, 134 kPa, Gas, hot wire | 0.01511 W/m/K and 0.01509 W/m/K
343.94 K, 82 kPa, Gas, hot wire | 0.0148 W/m/K and 0.01481 W/m/K
343.99 K, 26 kPa, Gas, hot wire | 0.01441 W/m/K
344 K, 26 kPa, Gas, hot wire | 0.01439 W/m/K
344.02 K, 192 kPa, Gas, hot wire | 0.01569 W/m/K
344.03 K, 192 kPa, Gas, hot wire | 0.01571 W/m/K
344.04 K, 170 kPa, Gas, hot wire | 0.01532 W/m/K
344.06 K, 134 kPa, Gas, hot wire | 0.01505 W/m/K
344.07 K, 134 kPa, Gas, hot wire | 0.01503 W/m/K
344.1 K, 82 kPa, Gas, hot wire | 0.01476 W/m/K
344.1 K, 83 kPa, Gas, hot wire | 0.01479 W/m/K
344.14 K, 26 kPa, Gas, hot wire | 0.01446 W/m/K and 0.01445 W/m/K
344.17 K, 191 kPa, Gas, hot wire | 0.01575 W/m/K and 0.01573 W/m/K
344.19 K, 169 kPa, Gas, hot wire | 0.01545 W/m/K and 0.01542 W/m/K
344.21 K, 133 kPa, Gas, hot wire | 0.01513 W/m/K
344.25 K, 83 kPa, Gas, hot wire | 0.0148 W/m/K
344.26 K, 83 kPa, Gas, hot wire | 0.01479 W/m/K
344.31 K, 26 kPa, Gas, hot wire | 0.01448 W/m/K and 0.01449 W/m/K
344.31 K, 191 kPa, Gas, hot wire | 0.01589 W/m/K
344.32 K, 191 kPa, Gas, hot wire | 0.01586 W/m/K
344.35 K, 169 kPa, Gas, hot wire | 0.01551 W/m/K and 0.01555 W/m/K
344.38 K, 132 kPa, Gas, hot wire | 0.01516 W/m/K
344.38 K, 133 kPa, Gas, hot wire | 0.01519 W/m/K
344.43 K, 83 kPa, Gas, hot wire | 0.0148 W/m/K
344.44 K, 83 kPa, Gas, hot wire | 0.01478 W/m/K
344.47 K, 191 kPa, Gas, hot wire | 0.01601 W/m/K and 0.01602 W/m/K
344.49 K, 26 kPa, Gas, hot wire | 0.01446 W/m/K and 0.01447 W/m/K
344.51 K, 169 kPa, Gas, hot wire | 0.01563 W/m/K
